Test results from patent publication US20230416232A1, “PYRIMIDINE COMPOUNDS, COMPOSITIONS, AND MEDICINAL APPLICATIONS THEREOF” (Blueprint Medicines Corporation, priority 2020, published 2023).

Assays:
Type in all cases: cell-based
[1] = molecular target: EGFR(D770_N771insSVD) expressing Ba/F3 stable cell line (Homo sapiens, UniProt P00533, DUP768-770, cells depend on it); experiment: Cellular proliferation (Alamar Blue) assay, EGFR(D770_N771insSVD) Ba/F3; conditions: 72 hr, read-out: D770 IC50
Protocol: (§1) Cell line details: • 1. EGFR(D770_N771insSVD) expressing Ba/F3 stable cell line • 2. EGFR (A767_dupASV) expressing Ba/F3 stable cell line • 3. A431 cells • 4. EGFR (H773insNPH) expressing Ba/F3 stable cell line • 5. HER2 (A775_G776insYVMA) expressing Ba/F3 stable cell line
(§2) • 1. Seed cells at 5000 for A431 and 15,000 cells for Ba/F3 in 100 μL/well in complete media (for A431: DMEM with 10% FBS and for Ba/F3 cells: RPMI with 10% FBS) in 96-well tissue culture plate. Leave outer wells without cells for background measurements. Incubate at 37 degree Celsius in 5% CO2 humidified incubator for 16-18 hours. • 2. Add 0.025 ml of 5X concentration compound dilution or DMSO control. Final compound concentration range is 10-0.0005 μM prepared in 3-fold serial dilutions. Incubate for 72 hr at 37 degree Celsius in 5% CO2 humidified incubator. • 3. Add 0.0125 ml Alamar Blue™ reagent to each well with multi-channel pipette and tap gently on each side of the plate to mix. Incubate for 3 hours at 37 degree Celsius in 5% CO2 humidified incubator. • 4. […] Data analysis was performed using XLfit 5.5.0.5.

[2] = tested on: A431 cells; experiment: Cellular proliferation (Alamar Blue) assay, A431 cells; conditions: Homo sapiens, A-431, 72 h, A431 cells; 72 hr; Alamar Blue; read-out: A431 IC50
Protocol: as §2

[3] = molecular target: EGFR (A767_dupASV) expressing Ba/F3 stable cell line (Homo sapiens, UniProt P00533, DUP767-769, cells depend on it); experiment: Cellular proliferation (Alamar Blue) assay, EGFR (A767_dupASV) Ba/F3; conditions: 72 hr, read-out: A767 IC50
Chain of EGFR (A767_dupASV) expressing Ba/F3 stable cell line (P00533 with tags, fused parts or gaps DUP767-769): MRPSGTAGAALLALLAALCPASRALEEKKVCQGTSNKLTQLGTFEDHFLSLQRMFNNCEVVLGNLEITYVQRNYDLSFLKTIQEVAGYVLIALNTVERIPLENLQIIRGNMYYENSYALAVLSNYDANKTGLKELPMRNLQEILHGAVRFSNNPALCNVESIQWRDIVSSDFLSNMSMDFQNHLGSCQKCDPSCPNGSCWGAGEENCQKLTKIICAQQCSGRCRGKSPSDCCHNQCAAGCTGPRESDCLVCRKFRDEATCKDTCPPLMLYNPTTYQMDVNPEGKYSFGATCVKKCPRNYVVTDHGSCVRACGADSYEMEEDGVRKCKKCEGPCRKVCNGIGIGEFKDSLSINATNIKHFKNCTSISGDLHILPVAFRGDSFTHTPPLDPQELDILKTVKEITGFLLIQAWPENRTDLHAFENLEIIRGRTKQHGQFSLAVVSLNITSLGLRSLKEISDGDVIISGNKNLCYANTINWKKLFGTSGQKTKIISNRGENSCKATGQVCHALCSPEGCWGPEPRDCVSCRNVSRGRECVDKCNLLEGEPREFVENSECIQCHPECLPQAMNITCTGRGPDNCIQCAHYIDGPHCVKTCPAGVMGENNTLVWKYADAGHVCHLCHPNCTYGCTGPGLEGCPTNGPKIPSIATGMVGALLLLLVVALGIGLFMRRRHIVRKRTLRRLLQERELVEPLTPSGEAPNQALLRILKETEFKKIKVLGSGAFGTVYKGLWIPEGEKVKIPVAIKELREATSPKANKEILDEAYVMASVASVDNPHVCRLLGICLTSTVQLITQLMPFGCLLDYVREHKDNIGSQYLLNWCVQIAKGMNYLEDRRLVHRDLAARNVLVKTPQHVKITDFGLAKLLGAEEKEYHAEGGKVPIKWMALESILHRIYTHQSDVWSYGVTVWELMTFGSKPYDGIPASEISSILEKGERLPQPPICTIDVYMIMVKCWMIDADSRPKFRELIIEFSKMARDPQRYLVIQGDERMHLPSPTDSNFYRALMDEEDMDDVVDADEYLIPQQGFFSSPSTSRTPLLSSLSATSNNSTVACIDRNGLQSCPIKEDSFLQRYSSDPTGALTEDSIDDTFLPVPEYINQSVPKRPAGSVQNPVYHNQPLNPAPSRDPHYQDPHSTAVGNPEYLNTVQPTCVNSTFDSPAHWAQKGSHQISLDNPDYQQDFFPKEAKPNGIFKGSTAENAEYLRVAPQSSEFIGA
Protocol: as §1, §2

Chain of EGFR(D770_N771insSVD) expressing Ba/F3 stable cell line (P00533 with tags, fused parts or gaps DUP768-770): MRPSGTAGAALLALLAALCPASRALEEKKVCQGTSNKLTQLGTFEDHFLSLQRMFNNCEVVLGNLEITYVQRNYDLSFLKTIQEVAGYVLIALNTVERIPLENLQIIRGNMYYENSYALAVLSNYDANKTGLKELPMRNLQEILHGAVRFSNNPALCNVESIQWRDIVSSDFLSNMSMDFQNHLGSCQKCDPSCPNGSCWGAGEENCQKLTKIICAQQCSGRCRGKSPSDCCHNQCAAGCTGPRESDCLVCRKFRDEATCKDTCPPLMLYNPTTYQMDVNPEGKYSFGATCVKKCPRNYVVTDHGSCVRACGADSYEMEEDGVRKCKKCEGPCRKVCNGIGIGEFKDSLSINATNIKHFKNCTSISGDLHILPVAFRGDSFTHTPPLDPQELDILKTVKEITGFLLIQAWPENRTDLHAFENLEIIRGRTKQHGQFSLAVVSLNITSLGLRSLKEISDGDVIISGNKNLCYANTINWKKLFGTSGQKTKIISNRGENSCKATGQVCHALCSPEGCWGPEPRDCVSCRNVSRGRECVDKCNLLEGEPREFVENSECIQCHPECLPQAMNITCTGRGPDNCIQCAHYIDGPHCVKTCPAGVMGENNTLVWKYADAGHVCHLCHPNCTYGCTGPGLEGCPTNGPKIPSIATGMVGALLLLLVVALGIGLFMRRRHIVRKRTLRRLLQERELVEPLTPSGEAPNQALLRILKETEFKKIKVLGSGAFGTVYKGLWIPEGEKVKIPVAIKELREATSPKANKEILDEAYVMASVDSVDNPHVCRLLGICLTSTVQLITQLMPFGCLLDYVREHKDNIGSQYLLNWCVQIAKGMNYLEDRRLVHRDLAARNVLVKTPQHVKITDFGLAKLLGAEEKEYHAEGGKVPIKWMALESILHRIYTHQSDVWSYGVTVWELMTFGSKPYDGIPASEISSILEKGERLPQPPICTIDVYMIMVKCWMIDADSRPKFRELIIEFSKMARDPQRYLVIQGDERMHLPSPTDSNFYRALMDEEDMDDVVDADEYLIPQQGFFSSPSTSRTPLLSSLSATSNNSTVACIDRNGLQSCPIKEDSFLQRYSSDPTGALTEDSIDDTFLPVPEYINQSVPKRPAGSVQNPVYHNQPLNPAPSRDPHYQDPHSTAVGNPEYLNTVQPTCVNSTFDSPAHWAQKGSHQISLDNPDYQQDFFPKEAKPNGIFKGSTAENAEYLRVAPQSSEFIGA

Row | GI50 [1] | IC50 [2] | GI50 [3] | SMILES
1 | 2730 nM | 2890 nM | 2760 nM | C=CC(=O)Nc1ccc(F)c(Nc2nc(Nc3cnn(C)c3)ncc2-c2cc(Cl)ccc2OC)c1 [Compound 23, N-(3-((5-(5-chloro-2-methoxyphenyl)-2-((1-methyl-1H-pyrazol-4-yl)amino)pyrimidin-4-yl)amino)-4-fluorophenyl)acrylamide]
2 | 906 nM | 3010 nM | 343 nM | C=CC(=O)Nc1ccc(F)c(Nc2nc(Nc3cnn(C)c3)ncc2-c2ccc(N3CCN(C)CC3)c(F)c2)c1 [Compound 81, N-(4-fluoro-3-((5-(3-fluoro-4-(4-methylpiperazin-1-yl)phenyl)-2-((1-methyl-1H-pyrazol-4-yl)amino)pyrimidin-4-yl)amino)phenyl)acrylamide]
3 | 363 nM | – | 919 nM | C=CC(=O)Nc1ccc(F)c(Nc2nc(Nc3cnn(C)c3)ncc2-c2ccc(F)cc2Cl)c1 [Compound 12, N-(3-((5-(2-chloro-4-fluorophenyl)-2-((1-methyl-1H-pyrazol-4-yl)amino)pyrimidin-4-yl)amino)-4-fluorophenyl)acrylamide]
4 | 104 nM | 194 nM | 307 nM | C=CC(=O)Nc1ccc(F)c(Nc2nc(Nc3cn(C)nc3Cl)ncc2-c2ccc(F)c(Cl)c2)c1 [Compound 52, N-(3-((2-((3-chloro-1-methyl-1H-pyrazol-4-yl)amino)-5-(3-chloro-4-fluorophenyl)pyrimidin-4-yl)amino)-4-fluorophenyl)acrylamide]
5 | 1010 nM | 1060 nM | 376 nM | C=CC(=O)Nc1ccc(F)c(Nc2nc(Nc3cnn(C)c3)ncc2-c2ccc(N3CC(N(C)C)C3)c(F)c2)c1 [Compound 83, N-(3-((5-(4-(3-(dimethylamino)azetidin-1-yl)-3-fluorophenyl)-2-((1-methyl-1H-pyrazol-4-yl)amino)pyrimidin-4-yl)amino)-4-fluorophenyl)acrylamide]
6 | 942 nM | 4510 nM | 737 nM | C=CC(=O)Nc1ccc(F)c(Nc2nc(Nc3cnn(C)c3)ncc2-c2cc(F)cc(N(C)C)c2)c1 [Compound 42, N-(3-((5-(3-(dimethylamino)-5-fluorophenyl)-2-((1-methyl-1H-pyrazol-4-yl)amino)pyrimidin-4-yl)amino)-4-fluorophenyl)acrylamide]
7 | 939 nM | 326 nM | 1730 nM | C=C(F)C(=O)Nc1ccc(F)c(Nc2nc(Nc3cnn(C)c3)ncc2-c2ccc(Br)c(F)c2)c1 [Compound 177, N-(3-((5-(4-bromo-3-fluorophenyl)-2-((1-methyl-1H-pyrazol-4-yl)amino)pyrimidin-4-yl)amino)-4-fluorophenyl)-2-fluoroacrylamide]
8 | 3940 nM | > 10000 nM | 3230 nM | C=CC(=O)Nc1ccc(F)c(Nc2nc(Nc3cnn(C)c3)ncc2-c2ccc(C(F)(F)F)cc2OC)c1 [Compound 10, N-(4-fluoro-3-((5-(2-methoxy-4-(trifluoromethyl)phenyl)-2-((1-methyl-1H-pyrazol-4-yl)amino)pyrimidin-4-yl)amino)phenyl)acrylamide]
9 | 2940 nM | 3580 nM | 2240 nM | C=CC(=O)Nc1ccc(F)c(Nc2nc(Nc3cnn(C)c3)ncc2-c2ccc(N(C)CCN(C)C)c(F)c2)c1 [Compound 86, N-(3-((5-(4-((2-(dimethylamino)ethyl)(methyl)amino)-3-fluorophenyl)-2-((1-methyl-1H-pyrazol-4-yl)amino)pyrimidin-4-yl)amino)-4-fluorophenyl)acrylamide]
10 | 927 nM | 350 nM | 722 nM | CN(C)C/C=C/C(=O)Nc1ccc(F)c(Nc2nc(Nc3cnn(C)c3)ncc2-c2ccc3c(c2)OCC3)c1 [Compound 178, (E)-N-(3-((5-(2,3-dihydrobenzofuran-6-yl)-2-((1-methyl-1H-pyrazol-4-yl)amino)pyrimidin-4-yl)amino)-4-fluorophenyl)-4-(dimethylamino)but-2-enamide]
